Results on 25 compounds are retold here after patent US7087623B2, “Thiazole and other heterocyclic ligands for mammalian dopamine, muscarinic and serotonin receptors and transporters, and methods of use thereof” (Sepracor Inc., priority 2001, dated 2006).

The target in assay [1] is T1, human serotonin 5-HT2A receptor (Homo sapiens, UniProt P28223).
T1 construct: expressed in transfected cells; host or cells: CHO-K1
The assay is described as follows: Radioligand binding assay, human 5-HT2A receptors ([3H]Ketanserin). The note with it: human; Example 100 table; read-out: IC50 (nM) 5-HT2A. The procedure: (§1) The human 5-HT2a and 5-HT2b screens were conducted according to Bonhaus, D. W. et al. Br. J. Pharmacol. 1995, 115, 622. The human 5-HT2c screen was conducted according to Wolf, W. A. et al. J. Neurochem. 1997, 69, 1449. The human 5-HT6 screen was conducted according to Monsma, F. J. et al. Mol. Pharmacol. 1993, 43, 320.
CHO-K1 cells stably transfected with a plasmid encoding the human serotonin 5-HT2A receptor were used to prepare membranes in modified Tris-HCl pH 7.7 buffer using standard techniques. […] Non-specific binding was estimated in the presence of 1 μM mianserin. […] See Bonhaus, D. W. et al. “The pharmacology and distribution of human 5-hydroxytryptamine2B (5-HT2B) receptor gene products: comparison with 5-HT2A and 5-HT2C receptors” Brit. J. Pharmacol. 115: 622–628, 1995; and Saucier, C and Albert, P. R. “Identification of an endogenous 5-hydroxytryptamine2A receptor in NIH-3T3 cells: agonist-induced down-regulation involves decreases in receptor RNA and number” J. Neurochem. 68: 1998–2011, 1997.
(§2) The human 5-HT2a and 5-HT2b screens were conducted according to Bonhaus, D. W. et al. Br. J. Pharmacol. 1995, 115, 622. The human […], W. A. et al. J. Neurochem. 1997, 69, 1449. The human 5-HT6 screen was conducted according to Monsama, F. J. et al. Mol. Pharmacol. 1993, 43, 320. The assay to human D3 receptors was conducted according to Sokoloff, P. et al. Nature 1990, 347;146. The human dopamine transporter assay was conducted according to Gu, H. et. al. J. Biol. Chem. 1994, 269 (10);7124; and Giros, B. et al. Trends. Pharmacol. Sci. 1993, 14: 43. The human muscarinic M1–M4 screens were conducted according to Buckley N. J. et al. Mol. Pharmacol. 1989, 35:469.

Assay [2] deals with T2, human serotonin 5-HT2C receptor (Homo sapiens, UniProt P28335).
T2 construct: expressed in transfected cells; host or cells: CHO-K1
T2 sequence (P28335 33-458): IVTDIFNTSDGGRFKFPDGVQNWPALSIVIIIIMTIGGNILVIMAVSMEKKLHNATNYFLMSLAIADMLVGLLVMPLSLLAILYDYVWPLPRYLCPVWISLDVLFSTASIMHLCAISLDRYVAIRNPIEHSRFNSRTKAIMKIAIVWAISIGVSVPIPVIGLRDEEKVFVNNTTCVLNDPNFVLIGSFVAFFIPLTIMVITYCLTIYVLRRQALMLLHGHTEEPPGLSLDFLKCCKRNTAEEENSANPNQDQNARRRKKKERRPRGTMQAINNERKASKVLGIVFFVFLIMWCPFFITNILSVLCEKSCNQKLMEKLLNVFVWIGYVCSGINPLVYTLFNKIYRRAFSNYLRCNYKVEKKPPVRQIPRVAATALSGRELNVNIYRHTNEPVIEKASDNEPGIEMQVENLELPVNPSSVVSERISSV
The assay is described as follows: Radioligand binding assay, human 5-HT2C receptors ([3H]Mesulergine). To be noted: human; Example 100 table; read-out: IC50 (nM) 5-HT2C. As to the method: as §1
CHO-K1 cells stably transfected with a plasmid encoding the human serotonin 5-HT2C receptor were used to prepare membranes in modified Tris-HCl pH 7.7 buffer using standard techniques. […] Non-specific binding was estimated in the presence of 1 μM mianserin. […] See Wolf, W. A. and Schutz, J. S. “The serotonin 5-HT2C receptor is a prominent serotonin receptor in basal ganglia: evidence from functional studies on serotonin-mediated phosphoinositide hydrolysis” J. Neurochem. 69: 1449–1458, 1997.
as §2

Assay [3] has as its target T3, human dopamine D3 receptor (Homo sapiens, UniProt P35462).
T3 construct: expressed in transfected cells; host or cells: CHO
The assay is described as follows: Radioligand binding assay, human dopamine D3 receptors ([3H]Spiperone). To be noted: human; Example 100 table; read-out: IC50 (nM) D3. As to the method: The assay for binding to human D3 receptors was conducted according to Sokoloff, P. et al. Nature 1990, 347, 146.
CHO cells stably transfected with a plasmid encoding the human dopamine D3 receptor were used to prepare membranes in modified Tris-HCl pH 7.4 buffer using standard techniques. […] Non-specific binding was estimated in the presence of 25 μM S-(−)-sulpiride. […] See Sokoloff, P. et al. “Molecular cloning and characterization of a novel dopamine receptor (D3) as a target for neuroleptics” Nature 347: 146–151, 1990.
as §2

The target in assay [4] is T4, human serotonin 5-HT6 receptor (Homo sapiens, UniProt P50406).
T4 construct: expressed in transfected cells; host or cells: HeLa/E6-7
The assay is described as follows: Radioligand binding assay, human 5-HT6 receptors ([3H]LSD). To be noted: human; Example 100 table; read-out: IC50 (nM) 5-HT6. As to the method: as §1
This assay measures binding of [^3H]LSD (lysergic acid diethylamide) to human serotonin 5-HT6 receptors. HeLa/E6–7 cells stably transfected with a plasmid encoding the human serotonin 5-HT6 receptor were used to prepare membranes in modified Tris-HCl pH 7.4 buffer using standard techniques. A 30 μg aliquot of membrane was incubated with 1.5 nM [^3H]LSD for 120 minutes at 37° C. Non-specific binding was estimated in the presence of 5 μM 5-HT. Membranes were filtered and washed 3 times and the filters were counted to determine [^3H]LSD specifically bound. See Monsma, Jr., F. J. et al. “Cloning and expression of a novel serotonin receptor with high affinity for tricyclic psychotropic drugs” Mol. Pharmacol. 43: 320–327, 1993.
as §2

T4 sequence (P50406 whole entry): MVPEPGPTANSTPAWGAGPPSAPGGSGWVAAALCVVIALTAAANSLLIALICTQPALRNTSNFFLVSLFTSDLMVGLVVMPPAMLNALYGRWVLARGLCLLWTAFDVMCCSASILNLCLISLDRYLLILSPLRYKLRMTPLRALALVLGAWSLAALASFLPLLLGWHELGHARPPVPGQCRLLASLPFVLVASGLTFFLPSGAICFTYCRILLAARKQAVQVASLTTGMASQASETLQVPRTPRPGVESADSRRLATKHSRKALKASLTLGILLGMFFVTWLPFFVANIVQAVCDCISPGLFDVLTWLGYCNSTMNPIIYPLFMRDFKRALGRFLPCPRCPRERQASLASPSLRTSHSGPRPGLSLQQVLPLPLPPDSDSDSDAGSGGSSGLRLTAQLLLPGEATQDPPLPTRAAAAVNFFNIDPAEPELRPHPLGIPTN
T3 sequence (P35462 whole entry): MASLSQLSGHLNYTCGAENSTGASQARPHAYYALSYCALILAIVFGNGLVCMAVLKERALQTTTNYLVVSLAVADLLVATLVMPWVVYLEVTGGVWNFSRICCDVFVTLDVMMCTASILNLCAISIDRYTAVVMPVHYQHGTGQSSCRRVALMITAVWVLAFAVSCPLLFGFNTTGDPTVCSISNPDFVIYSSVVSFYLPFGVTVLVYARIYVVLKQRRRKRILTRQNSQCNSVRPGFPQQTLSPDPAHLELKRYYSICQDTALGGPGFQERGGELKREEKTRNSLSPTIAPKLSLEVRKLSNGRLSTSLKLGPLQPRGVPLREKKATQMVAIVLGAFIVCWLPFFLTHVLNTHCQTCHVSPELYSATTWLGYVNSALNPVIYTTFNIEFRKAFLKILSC
T1 sequence (P28223 whole entry): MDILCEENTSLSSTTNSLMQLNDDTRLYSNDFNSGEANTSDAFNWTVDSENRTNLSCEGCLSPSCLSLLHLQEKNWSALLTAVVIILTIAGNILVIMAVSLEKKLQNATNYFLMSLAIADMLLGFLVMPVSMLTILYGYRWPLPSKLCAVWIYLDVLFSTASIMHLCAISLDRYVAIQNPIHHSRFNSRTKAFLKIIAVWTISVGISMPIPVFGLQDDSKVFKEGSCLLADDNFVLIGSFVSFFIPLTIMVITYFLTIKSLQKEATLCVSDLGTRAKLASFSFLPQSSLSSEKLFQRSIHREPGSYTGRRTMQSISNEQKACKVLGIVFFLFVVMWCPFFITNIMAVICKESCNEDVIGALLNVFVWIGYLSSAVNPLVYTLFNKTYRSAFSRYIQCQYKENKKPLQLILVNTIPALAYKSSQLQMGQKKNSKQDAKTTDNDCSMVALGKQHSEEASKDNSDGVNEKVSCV

Broadly, the IC50 is the point on the concentration scale where inhibition reaches its midpoint. Consider `CN1CCCC1CCNc1nc(C2(c3ccc(Cl)cc3)CCCCC2)cs1` (stereo not shown) [Compound 95, {4-[1-(4-chloro-phenyl)-cyclohexyl]-thiazol-2-yl}-[2-(1-methyl-pyrrolidin-2-yl)-ethyl] amine], for which the IC50 in assay [1], in assay [2], in assay [3] and in assay [4] was < 1000 nM each time.
For the compound `CCN(CC)CCCNc1nc(C2(c3ccccc3F)CCCC2)cs1` [Compound 114], the IC50 in assay [3] and in assay [4] was > 1000 nM throughout.
In the case of `CCN(CC)CCCNc1nc(C2(c3cccc(Cl)c3)CCOCC2)cs1` [Compound 98, N-{4-[4-(3-chloro-phenyl)-tetrahydro-pyran-4yl]-thiazol-2-yl}-N,N-diethyl-propane-1,3-diamine], the half-inhibitory concentration (IC50) in assay [3] and in assay [4] was > 1000 nM in each case.
On to `Clc1ccc(C2(c3csc(N4CCNCC4)n3)CCCC2)cc1` [Compound 109], for which the IC50 in assay [3] is < 1000 nM; in assay [4] it was < 100 nM.
On to `COc1ccccc1N1CCN(c2nc(C3(c4ccccc4F)CCCCC3)cs2)CC1` [Compound 97], for which the concentration for half-maximal inhibition (IC50) in assay [1], in assay [2], in assay [3] and in assay [4] was > 1000 nM each time.
For the compound `Clc1ccc(C2(c3csc(NCCN4CCCCC4)n3)CCCC2)cc1` [Compound 101], the IC50 in assay [3] and in assay [4] was < 1000 nM throughout.
As for `Clc1ccc(C2(c3csc(NCCCN4CCOCC4)n3)CCCC2)cc1` [Compound 100], the half-inhibitory concentration (IC50) is > 1000 nM in assay [1], < 1000 nM in assay [2], > 1000 nM in assay [3] and < 1000 nM in assay [4].
On to `CN1CCC(N(C)c2nc(C3(c4ccc(Cl)cc4)CCCCC3)cs2)C1` (stereo not shown) [Compound 108], for which the results for the IC50 in assay [3] and in assay [4] were < 1000 nM and < 100 nM, respectively.
Consider `CNC1CCN(c2nc(C3(c4ccc(Cl)cc4)CCCCC3)cs2)C1` (stereo not shown) [Compound 106], for which the IC50 in assay [1], in assay [2], in assay [3] and in assay [4] was > 1000 nM in each case.
Take `Fc1ccccc1C1(c2csc(NCCCN3CCOCC3)n2)CCCC1` [Compound 96]: the IC50 in assay [1], in assay [2], in assay [3] and in assay [4] was > 1000 nM throughout.
Take `CN(C)C1CCN(c2nc(C3(c4ccc(Cl)cc4)CCCC3)cs2)C1` (stereo not shown) [Compound 118]: the half-inhibitory concentration (IC50) in assay [3] is > 1000 nM; in assay [4], < 1000 nM.
The like results for `CCN1CCCC1CNc1nc(C2(c3ccccc3F)CCCCC2)cs1` (racemic) [Compound 131, (1-ethyl-pyrrolidin-2-ylmethyl)-{4-[1-(2-fluorophenyl)-cyclohexyl]-thiazol-2-yl}-amine] were, in that order, < 1000 nM and < 1000 nM.
The like results for `Clc1ccc(C2(c3csc(NCCN4CCOCC4)n3)CCCCC2)cc1` [Compound 102] were, in that order, > 1000 nM and < 1000 nM.
On to `CCN(CC)CCCNc1nc(C2(c3ccc(Cl)cc3)CCCCC2)cs1` [Compound 103], for which the IC50 in assay [1], in assay [2], in assay [3] and in assay [4] was < 1000 nM each time.
With `CN(C)C1CCN(c2nc(C3(c4ccc(Cl)cc4)CCCCC3)cs2)C1` (stereo not shown) [Compound 117], the half-maximal inhibitory concentration (IC50) in assay [3] and in assay [4] was > 1000 nM in each case.
For `Clc1ccc(C2(c3csc(N4CCC(N5CCCCC5)CC4)n3)CCCCC2)cc1` [Compound 107], the IC50 in assay [3] was < 1000 nM; in assay [4], > 1000 nM.
The like results for `Fc1ccccc1C1(c2csc(N3CCNCC3)n2)CCCCC1` [Compound 127, 1-{4-[1-(2-Fluorophenyl)-cyclohexyl]-thiazol-2-yl}-piperazine] were, in that order, < 1000 nM and < 100 nM.
As for `Clc1ccc(C2(c3csc(NCCCN4CCOCC4)n3)CCCCC2)cc1` [Compound 94, {4-[1-(4-chloro-phenyl)-cyclohexyl]-thiazol-2-yl}-(3-morpholin-4-yl-propyl)-amine], the IC50 in assay [1] was > 1000 nM; in assay [2] it was < 1000 nM; in assay [3], > 1000 nM; in assay [4], < 1000 nM.
As to `Fc1ccccc1C1(c2csc(N3CCN(Cc4ccc(Cl)cc4)CC3)n2)CCCC1` [Compound 110], the IC50 in assay [3] and in assay [4] was > 1000 nM in each case.
`CN1CCCC1CCNc1nc(C2(c3ccccc3F)CCCCC2)cs1` (single isomer, unassigned) [Compound 129, {4-[1-(2-fluorophenyl)-cyclohexyl]-thiazol-2-yl}-[2-(1-methyl-pyrrolidin-2-yl)-ethyl]-amine]: the IC50 in assay [1], in assay [2], in assay [3] and in assay [4] was < 1000 nM throughout.
For the compound `Clc1ccc(C2(c3csc(N4CCOCC4)n3)CCOCC2)cc1` [Compound 124, 4-{4-[4-(4-Chloro-phenyl)-tetrahydro-pyran-4-yl]-thiazol-2-yl}-morpholine], the IC50 in assay [1], in assay [2], in assay [3] and in assay [4] was > 1000 nM in each case.
Turning to `Clc1ccc(C2(c3csc(NC4CCN(Cc5ccccc5)C4)n3)CCCCC2)cc1` (stereo not shown) [Compound 119], the IC50 in assay [3] and in assay [4] was > 1000 nM throughout.
For the compound `CN1CCCN(c2nc(C3(c4ccc(Cl)cc4)CCCCC3)cs2)CC1` [Compound 115], the concentration for half-maximal inhibition (IC50) in assay [3] and in assay [4] was < 1000 nM in each case.
Regarding `CN1CCCN(c2nc(C3(c4ccc(Cl)cc4)CCCC3)cs2)CC1` [Compound 105], the half-inhibitory concentration (IC50) in assay [1] is < 1000 nM; in assay [2] it was < 1000 nM; in assay [3] it was < 100 nM; in assay [4], < 1000 nM.
Consider `CN(C)C1CCN(c2nc(C3(c4ccccc4F)CCCCC3)cs2)C1` (racemic) [Compound 136, (1-{4-[1-(2-Fluoro-phenyl)-cyclohexyl]-thiazol-2-yl}-pyrrolidin-3-yl)-dimethylamine], for which the IC50 in assay [3] and in assay [4] was > 1000 nM throughout.
